These results are taken from patent US20230048888A1, “USE OF TRIAZOLOTRIAZINE DERIVATIVE IN TREATMENT OF DISEASES” (ZHEJIANG VIMGREEN PHARMACEUTICALS, LTD., priority 2019, published 2023).

For orientation: IC50 means the midpoint of a concentration-inhibition curve.

The subject of test [1] is reserpine-induced dyskinesia. Nature of the test: Mouse reserpine-induced dyskinesia model (Laboras spontaneous activity). It is filed as in vivo, CD1 mice. The text has this:
Reserpine is an indole alkaloid drug, which can inhibit the reuptake of noradrenergic neuron terminals to lead to slowed movement or incompetence, thereby inducing clinical symptoms similar to those of the Parkinson's disease. Its mechanism is as follows: the reserpine can block the transport of irreversible monoamines such as DA, 5-hydroxytryptamine (5-HT) and norepinephrine (NA) in vesicles, such that the monoamines are degraded in cells to consume central and peripheral monoamines, and rapidly reduce the level of monoamines, resulting in dyskinesias and other Parkinson's disease-like symptoms. An A2A receptor antagonist was administered to evaluate if the compound under test can ameliorate the dyskinesia of the mice. The evaluation indicators include walking distance, walking time, number of standings and standing time. […] The total number of actually used animals was 90. The animals were purchased from Charles River Laboratories in Beijing (Animal Certificate Number: 1100112011009984) and raised in the animal house of ChemPartner in Shanghai (Experimental Animal License: SYXK (Shanghai) 2017-0018). The animal house has an SPF environment. On the first day of the test, a single subcutaneous injection of 0.1% acetic acid or 0.6 mg/kg reserpine was performed based on the pre-set grouping and time points. After the injection, the animals were put back to rearing cages and pushed back to the original rearing room. The activity test was carried out on the second day of the test, and before the test, the Laboras system needed to be calibrated in advance to make it in a normal working state. […] The mice were put into an independent Laboras test box 50 minutes after the administration, and the Laboras behavior recording system was started up after 10 minutes of adaptation. The current moment is the 1st hour after the last administration for the animals, and the animals were recorded continuously for 60 minutes. After the test was completed, the Laboras behavior system automatically analyzed the walking distance (m), walking time (sec), the number of standings and standing time (sec) of the mice at 0-30 min, 30-60 min, 0-60 min and every 10 min. All measurement data were represented as mean±standard error of mean (mean±SEM), and check analysis was performed by Prism 8.0 statistical software.

A further test deals with T1, adenosine receptor A1 (Homo sapiens, UniProt P30542).
T1 construct: host or cells: CHO
T1 sequence (P30542 1-326): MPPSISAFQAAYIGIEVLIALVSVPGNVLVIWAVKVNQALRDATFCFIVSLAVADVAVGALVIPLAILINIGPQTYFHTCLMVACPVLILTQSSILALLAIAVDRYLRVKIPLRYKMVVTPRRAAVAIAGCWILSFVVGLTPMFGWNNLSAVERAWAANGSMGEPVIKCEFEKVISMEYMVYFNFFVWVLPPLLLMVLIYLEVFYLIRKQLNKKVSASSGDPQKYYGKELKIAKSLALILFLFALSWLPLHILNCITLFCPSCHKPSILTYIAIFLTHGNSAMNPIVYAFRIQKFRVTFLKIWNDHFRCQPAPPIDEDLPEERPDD
Nature of the test: cAMP experiment on Gi-coupled adenosine receptor A1 (CHO). It is filed as cell-based. Conditions: cAMP accumulation, NECA EC80 + forskolin; read-out: IC50 (nM) CHO cells (ADORA1). The procedure:
In this experiment, a CHO cell strain stably expressing the adenosine receptor Al was taken as a study object (PerkinElmer, ES-010-C) for the experiment. […] A solution system for cell inoculation was 10 μL of cAMP experimental buffer. […] Likewise, 10 mM test compound was also subjected to 3-fold gradient dilution in 100% DMSO. 1 mM forskolin (Sigma, F3917) was prepared with 100% DMSO. The gradient-diluted reference compound and test compound and the 1 mM forskolin were added to a 384-well compound plate (Labcyte, PP-0200). 10 nL of the 1 mM forskolin per well and 10 nL of the gradient-diluted reference agonist NECA per well were transferred to a test plate containing cells by using Echo (Labcyte, 550), and the test plate was incubated for 30 minutes at 37° C. 5 μL of Eu-cAMP tracer working solution and 5 μL of ULight-anti-cAMP working solution (PerkinElmer, TRF0263) were added to the test plate per well, and the test plate was incubated for 30 minutes at 25° C. […] 1000×EC80 NECA was prepared with 100% DMSO. 10 nL of the reference inhibitor DPCPX gradient-diluted per well and 10 nL of the test compound gradient-diluted per well per well were transferred to a test plate containing the cells, and the test plate was incubated for 20 minutes at 25° C. 10 nL of 1000×EC80 NECA per well and 10 nL of 1 mM forskolin per well were transferred to the test plate The test plate was incubated for 30 minutes at 37° C. 5 μL of Eu-cAMP tracer working solution and 5 μL of ULight-anti-cAMP working solution were added to the test plate per well, and the test plate was incubated for 30 minutes at 25° C. The fluorescence signal ratio of each well in the test plate was read, and the IC50 value of the compound was calculated by using the output data of the reference inhibitor and test compound and the concentration of the compound.
In general terms: Changes in cAMP serve as a functional read-out for many G protein-coupled receptors.

Setting [2] is: 10 mg/kg intragastric, 0-30 min.
[3] abbreviates: 10 mg/kg intragastric, 0-60 min.
Setting [4] is: 10 mg/kg intragastric, 30-60 min.
[5] abbreviates: 3 mg/kg intragastric, 30-60 min.
Where [6] appears, read: 30 mg/kg intragastric, 0-30 min.
Setting [7] is: 30 mg/kg intragastric, 0-60 min.
Where [8] appears, read: 30 mg/kg intragastric, 30-60 min.

As to `CCn1c(=O)c2c(nc(/C=C/c3ccc(OC)c(OC)c3)n2C)n(CC)c1=O` [Istradefylline, reference compound], the figures for the Number of standings in test [1] (setting [2]), in test [1] (setting [3]) and in test [1] (setting [4]) were 94.3 ± 11.1, 165 ± 20 and 70.6 ± 10.6, respectively. Also, the figures for the Walking distance in test [1] (setting [2]), in test [1] (setting [3]) and in test [1] (setting [4]) were 11.9 ± 1.4 m, 23.7 ± 3.2 m and 11.8 ± 2.0 m, respectively. The Walking time in test [1] (setting [2]) was 177.5 ± 16.0 s; in test [1] (setting [3]), 298.3 ± 28.4 s; in test [1] (setting [4]) it was 120.8 ± 16.0 s. Besides, the half-inhibitory concentration (IC50) on adenosine receptor A1 turned out to be 1200 nM.
Take `Cn1nnc(-c2ccc(CCNc3nc(N)n4nc(-c5ccco5)nc4n3)cc2)n1` [Compound 40, N5-(4-(2-methyl-2H-tetrazol-5-yl)phenethyl)-2-(furan-2-yl)-[1,2,4]triazolo[1,5-a][1,3,5]triazine-5,7-diamine]: on adenosine receptor A1, the IC50 is 388 nM.
Take `CC(=O)O.Nc1nc(NCCc2ccc(NC3COC3)cc2)nc2nc(-c3ccco3)nn12` [Acetate of Compound 22, 2-(furan-2-yl)-N5-(4-(oxetane-3-ylamino)phenethyl)-[1,2,4]triazolo[1,5-a][1,3,5]triazine-5,7-diamine acetate]: the Number of standings in test [1] (3 mg/kg intragastric, 0-30 min) turned out to be 36.7 ± 5.9; in test [1] (3 mg/kg intragastric, 0-60 min), 49.6 ± 12.2; in test [1] (setting [5]), 12.9 ± 6.8; in test [1] (setting [2]) it was 75.6 ± 8; in test [1] (setting [3]), 116 ± 15.7; in test [1] (setting [4]), 40.3 ± 11.4. Further, the values for the Number of standings in test [1] (setting [6]), in test [1] (setting [7]) and in test [1] (setting [8]) were 98.7 ± 12.6, 178 ± 20.9 and 79.4 ± 10.1, respectively. Besides, the Walking distance is listed as 4.3 ± 0.7 m in test [1] (3 mg/kg intragastric, 0-30 min); 6.9 ± 2.1 m in test [1] (3 mg/kg intragastric, 0-60 min); 2.6 ± 1.6 m in test [1] (setting [5]); 10.7 ± 1.0 m in test [1] (setting [2]); 19.2 ± 2.9 m in test [1] (setting [3]); 8.5 ± 2.3 m in test [1] (setting [4]). Also, the Walking distance in test [1] (setting [6]) is given as 11.3 ± 1.1 m; in test [1] (setting [7]) it was 27.1 ± 2.5 m; in test [1] (setting [8]), 15.9 ± 1.9 m. Also, the Walking time in test [1] (3 mg/kg intragastric, 0-30 min) is 77.8 ± 11.0 s; in test [1] (3 mg/kg intragastric, 0-60 min), 108.5 ± 23.0 s; in test [1] (setting [5]), 30.7 ± 13.9 s; in test [1] (setting [2]), 160.5 ± 10.8 s; in test [1] (setting [3]) it was 245.4 ± 29.1 s; in test [1] (setting [4]) it was 84.9 ± 22.4 s. The Walking time in test [1] (setting [6]) worked out at 175.6 ± 12.4 s; in test [1] (setting [7]), 311.0 ± 22.3 s; in test [1] (setting [8]) it was 135.4 ± 12.8 s.
Take `Nc1nc(NCCc2ccc(NC3COC3)cc2)nc2nc(-c3ccco3)nn12` [Compound 22, 2-(furan-2-yl)-N5-(4-(oxetan-3-ylamino)phenethyl)-[1,2,4]triazolo[1,5-a][1,3,5]triazine-5,7-diamine]: at adenosine receptor A1, the IC50 amounted to 928 nM.
On the same count and under the same terms, the result for `COCCNc1ccc(CCNc2nc(N)n3nc(-c4ccco4)nc3n2)cc1` [Compound 27, 2-(furan-2-yl)-N5-(4-((2-methoxyethyl)amino)phenethyl)-[1,2,4]triazolo[1,5-a][1,3,5]triazine-5,7-diamine] reads 679 nM.
